In the supplement of paper PMC10307832:

Compound: COc1cc2nc(N3CCCN(C)CC3)nc(NC3CCN(Cc4ccccc4)CC3)c2cc1OC + O=C(c1cc(Cc2n[nH]c(=O)c3ccccc23)ccc1F)N1CCN(C(=O)C2CC2)CC1 [Olaparib] (partner 8 µM)
Experiment: relative viability (nuclei count vs DMSO), 5 days (fraction); higher = more cells survive
Conditions: first compound 0.2 µM
Outline: (§1)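 Lung cancer cell lines in 1536-well plates got either a single drug or a fixed anchor-drug dose together with five library-drug doses (not always all listed) in √10 steps, by pin tool, on the day after seeding. Nuclei were counted after 5 days, and relative viability is the treated-to-vehicle ratio of nuclei counts. Values are medians of duplicate plates.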

Going from NCI-H23 to NCI-H647, the relative viability rises from 0.299 to 0.517.

First: NCI-H1651
Second: EPLC-272H
The relative viability of the first is lower: 0.181 for the first, 0.738 for the second.

Going from NCI-H1792 to NCI-H1355, the relative viability rises from 0.49 to 0.714.

Compared with NCI-H3122, NCI-H1437 is lower in relative viability: 0.644 for the first, 0.626 for the second.

Going from NCI-H1755 to HCC-15, the relative viability falls from 0.805 to 0.738.

First: NCI-H1793
Second: PC-14
The relative viability of the first is higher: 0.805 for the first, 0.322 for the second.

Going from EKVX to LC-2-ad, the relative viability falls from 0.838 to 0.778.

Going from NCI-H1944 to NCI-H1975, the relative viability rises from 0.416 to 0.761.

Going from RERF-LC-KJ to ABC-1, the relative viability rises from 0.857 to 1.17.

Compared with NCI-H358, NCI-H650 is lower in relative viability: 0.51 for the first, 0.445 for the second.

Cell Line PC-3 [JPC-3] has a relative viability of 1.2.

Same assay, conditions: first compound 0.6325 µM

First: NCI-H23
Second: NCI-H647
The relative viability of the first is lower: 0.271 for the first, 0.443 for the second.

Going from NCI-H1651 to EPLC-272H, the relative viability rises from 0.149 to 0.888.

Compared with NCI-H1792, NCI-H1355 is higher in relative viability: 0.409 for the first, 0.743 for the second.

Compared with NCI-H3122, NCI-H1437 is higher in relative viability: 0.616 for the first, 0.628 for the second.

First: NCI-H1755
Second: HCC-15
The relative viability of the first is higher: 0.832 for the first, 0.674 for the second.

Going from NCI-H1793 to PC-14, the relative viability falls from 0.924 to 0.374.

Going from EKVX to LC-2-ad, the relative viability falls from 0.873 to 0.728.

First: NCI-H1944
Second: NCI-H1975
The relative viability of the first is lower: 0.436 for the first, 0.755 for the second.

Going from RERF-LC-KJ to ABC-1, the relative viability falls from 0.898 to 0.768.

First: NCI-H358
Second: NCI-H650
The relative viability of the first is higher: 0.628 for the first, 0.356 for the second.

Cell Line PC-3 [JPC-3] has a relative viability of 1.24.

Same assay, conditions: first compound 2 µM

Compared with NCI-H23, NCI-H647 is higher in relative viability: 0.344 for the first, 0.537 for the second.

Going from NCI-H1651 to EPLC-272H, the relative viability rises from 0.157 to 0.767.

Going from NCI-H1792 to NCI-H1355, the relative viability rises from 0.485 to 0.862.

Compared with NCI-H3122, NCI-H1437 is lower in relative viability: 0.634 for the first, 0.623 for the second.

First: NCI-H1755
Second: HCC-15
The relative viability of the first is higher: 0.85 for the first, 0.754 for the second.

Going from NCI-H1793 to PC-14, the relative viability falls from 1.09 to 0.279.

Going from EKVX to LC-2-ad, the relative viability falls from 0.808 to 0.72.

First: NCI-H1944
Second: NCI-H1975
The relative viability of the first is lower: 0.397 for the first, 0.915 for the second.

Compared with RERF-LC-KJ, ABC-1 is lower in relative viability: 1.04 for the first, 0.983 for the second.

First: NCI-H358
Second: NCI-H650
The relative viability of the first is higher: 0.644 for the first, 0.434 for the second.

For PC-3 [JPC-3], the relative viability was 1.31.

Same assay, conditions: first compound 6.325 µM

First: NCI-H23
Second: NCI-H647
The relative viability of the first is higher: 0.285 for the first, 0.242 for the second.

Going from NCI-H1651 to EPLC-272H, the relative viability rises from 0.17 to 0.329.

Going from NCI-H1792 to NCI-H1355, the relative viability rises from 0.441 to 0.79.

First: NCI-H3122
Second: NCI-H1437
The relative viability of the first is higher: 0.629 for the first, 0.574 for the second.

First: NCI-H1755
Second: HCC-15
The relative viability of the first is higher: 0.831 for the first, 0.695 for the second.

First: NCI-H1793
Second: PC-14
The relative viability of the first is higher: 0.995 for the first, 0.0641 for the second.

Going from EKVX to LC-2-ad, the relative viability falls from 0.776 to 0.701.

First: NCI-H1944
Second: NCI-H1975
The relative viability of the first is lower: 0.396 for the first, 0.823 for the second.

Compared with RERF-LC-KJ, ABC-1 is higher in relative viability: 0.637 for the first, 0.915 for the second.

First: NCI-H358
Second: NCI-H650
The relative viability of the first is higher: 0.568 for the first, 0.396 for the second.

With PC-3 [JPC-3] the relative viability was 0.966.

Compound: Cc1cc([C@@H](C)Nc2ccccc2C(=O)O)c2nc(N3CCOCC3)cc(=O)n2c1 [AZD6482] + CS(=O)(=O)N1CCN(Cc2cc3nc(-c4cccc5[nH]ncc45)nc(N4CCOCC4)c3s2)CC1 [Pictilisib] (partner 1 µM)
Experiment: as above
Conditions: first compound 0.08 µM
Outline: as §1

Going from NCI-H23 to NCI-H647, the relative viability falls from 0.465 to 0.358.

Going from NCI-H1651 to EPLC-272H, the relative viability falls from 0.596 to 0.325.

Compared with NCI-H1792, NCI-H1355 is higher in relative viability: 0.224 for the first, 0.302 for the second.

First: NCI-H3122
Second: NCI-H1437
The relative viability of the first is higher: 0.644 for the first, 0.471 for the second.

Compared with NCI-H1755, HCC-15 is higher in relative viability: 0.274 for the first, 0.642 for the second.

Compared with NCI-H1793, PC-14 is higher in relative viability: 0.261 for the first, 0.575 for the second.

Compared with EKVX, LC-2-ad is lower in relative viability: 0.378 for the first, 0.36 for the second.
